Source: the supplement of paper PMC10307832

How the values were obtained:
Assay in all cases: relative viability (nuclei count vs DMSO), 5 days (fraction); higher = more cells survive
Calu-6 = tested on: Calu-6
Summary of the method: (§1)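 Medians of duplicate plates are given as relative viability. That measure is the nuclei count in treated wells divided by the count in vehicle wells. Counts were taken on 4× images of lung cancer cell lines in 1536-well plates, 5 days after pin-tool dosing the day after seeding with one drug alone or a fixed anchor-drug dose plus five library-drug doses (not always all listed) in √10 steps.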

A549 = tested on: A549
Summary of the method: as §1

EBC-1 = tested on: EBC-1
Summary of the method: as §1

NCI-H2405 = tested on: NCI-H2405
Summary of the method: as §1

NCI-H1623 = tested on: NCI-H1623
Summary of the method: as §1

NCI-H1703 = tested on: NCI-H1703
Summary of the method: as §1

NCI-H2009 = tested on: NCI-H2009
Summary of the method: as §1

LOU-NH91 = tested on: LOU-NH91
Summary of the method: as §1

NCI-H647 = tested on: NCI-H647
Summary of the method: as §1

IA-LM = tested on: IA-LM
Summary of the method: as §1

NCI-H1299 = tested on: NCI-H1299
Summary of the method: as §1

NCI-H1648 = tested on: NCI-H1648
Summary of the method: as §1

Compound CN1CCN(CCOc2cc(OC3CCOCC3)c3c(Nc4c(Cl)ccc5c4OCO5)ncnc3c2)CC1 [Saracatinib] + COc1cc2c(Oc3ccc(NC(=O)C4(C(=O)Nc5ccc(F)cc5)CC4)cc3F)ccnc2cc1OCCCN1CCOCC1 [Foretinib] (partner 0.25 µM) has a relative viability (Calu-6; first compound 0.02 µM) of 0.813, a relative viability (Calu-6; first compound 0.2 µM) of 0.579 and a relative viability (Calu-6; first compound 0.6325 µM) of 0.684. The relative viability (Calu-6; first compound 2 µM) was 0.581, the relative viability (A549; first compound 0.02 µM) was 0.864 and the relative viability (A549; first compound 0.6325 µM) was 0.8. For the same compound, the relative viability (A549; first compound 2 µM) was 0.841, the relative viability (EBC-1; first compound 0.02 µM) was 0.0938 and the relative viability (EBC-1; first compound 0.2 µM) was 0.111. The relative viability (EBC-1; first compound 0.6325 µM) was 0.108, the relative viability (EBC-1; first compound 2 µM) was 0.106 and the relative viability (NCI-H2405; first compound 0.02 µM) was 1.03. It also gave a relative viability (NCI-H2405; first compound 0.2 µM) of 0.94, a relative viability (NCI-H2405; first compound 0.6325 µM) of 0.98 and a relative viability (NCI-H2405; first compound 2 µM) of 0.658. It also gave a relative viability (NCI-H1623; first compound 0.02 µM) of 0.876, a relative viability (NCI-H1623; first compound 0.2 µM) of 0.723 and a relative viability (NCI-H1623; first compound 0.6325 µM) of 0.908. For the same compound, the relative viability (NCI-H1623; first compound 2 µM) was 0.681, the relative viability (NCI-H1703; first compound 0.02 µM) was 0.38 and the relative viability (NCI-H1703; first compound 0.2 µM) was 0.319. For the same compound, the relative viability (NCI-H1703; first compound 0.6325 µM) was 0.251, the relative viability (NCI-H1703; first compound 2 µM) was 0.259 and the relative viability (NCI-H2009; first compound 0.02 µM) was 1.22. It also gave a relative viability (NCI-H2009; first compound 0.2 µM) of 1.14, a relative viability (NCI-H2009; first compound 0.6325 µM) of 0.951 and a relative viability (NCI-H2009; first compound 2 µM) of 1.03. For the same compound, the relative viability (LOU-NH91; first compound 0.02 µM) was 0.867, the relative viability (LOU-NH91; first compound 0.2 µM) was 0.661 and the relative viability (LOU-NH91; first compound 0.6325 µM) was 0.609. It also gave a relative viability (LOU-NH91; first compound 2 µM) of 0.488, a relative viability (NCI-H647; first compound 0.02 µM) of 0.997 and a relative viability (NCI-H647; first compound 0.2 µM) of 1.14. The relative viability (NCI-H647; first compound 0.6325 µM) was 1.04, the relative viability (NCI-H647; first compound 2 µM) was 1.12 and the relative viability (IA-LM; first compound 0.02 µM) was 1.13. For the same compound, the relative viability (IA-LM; first compound 0.2 µM) was 1.28, the relative viability (IA-LM; first compound 0.6325 µM) was 1.01 and the relative viability (IA-LM; first compound 2 µM) was 0.912. The relative viability (NCI-H1299; first compound 0.02 µM) was 1.11, the relative viability (NCI-H1299; first compound 0.2 µM) was 1.08 and the relative viability (NCI-H1299; first compound 0.6325 µM) was 1.21. The relative viability (NCI-H1299; first compound 2 µM) was 1.14.

In the case of Cc1cn(-c2cc(NC(=O)c3ccc(C)c(Nc4nccc(-c5cccnc5)n4)c3)cc(C(F)(F)F)c2)cn1 [Nilotinib] + COc1cccc2cc(-c3nc([C@H]4CC[C@H](C(=O)O)CC4)n4ncnc(N)c34)[nH]c12 [OSI-027] (partner 0.5 µM), the relative viability (NCI-H2405; first compound 0.001 µM) is reported as 0.594, the relative viability (NCI-H2405; first compound 0.003162 µM) is reported as 0.617 and the relative viability (NCI-H2405; first compound 0.01 µM) is reported as 0.568. For the same compound, the relative viability (NCI-H2405; first compound 0.03162 µM) was 0.609, the relative viability (NCI-H2405; first compound 0.1 µM) was 0.432 and the relative viability (NCI-H1623; first compound 0.001 µM) was 0.395. It also gave a relative viability (NCI-H1623; first compound 0.003162 µM) of 0.422, a relative viability (NCI-H1623; first compound 0.01 µM) of 0.444 and a relative viability (NCI-H1623; first compound 0.03162 µM) of 0.432. The relative viability (NCI-H1623; first compound 0.1 µM) was 0.423, the relative viability (NCI-H2009; first compound 0.001 µM) was 0.486 and the relative viability (NCI-H2009; first compound 0.003162 µM) was 0.624. It also gave a relative viability (NCI-H2009; first compound 0.01 µM) of 0.765, a relative viability (NCI-H2009; first compound 0.03162 µM) of 0.556 and a relative viability (NCI-H2009; first compound 0.1 µM) of 0.357. The relative viability (NCI-H1648; first compound 0.003162 µM) was 0.257, the relative viability (NCI-H1648; first compound 0.01 µM) was 0.257 and the relative viability (NCI-H1648; first compound 0.03162 µM) was 0.256. It also gave a relative viability (NCI-H1648; first compound 0.1 µM) of 0.253, a relative viability (LOU-NH91; first compound 0.001 µM) of 0.687 and a relative viability (LOU-NH91; first compound 0.003162 µM) of 0.728. The relative viability (LOU-NH91; first compound 0.01 µM) was 0.736, the relative viability (LOU-NH91; first compound 0.03162 µM) was 0.67 and the relative viability (LOU-NH91; first compound 0.1 µM) was 0.727. For the same compound, the relative viability (NCI-H647; first compound 0.001 µM) was 0.638, the relative viability (NCI-H647; first compound 0.003162 µM) was 0.749 and the relative viability (NCI-H647; first compound 0.01 µM) was 0.762. The relative viability (NCI-H647; first compound 0.03162 µM) was 0.355 and the relative viability (NCI-H647; first compound 0.1 µM) was 0.644.

Work on CCNC(=O)c1noc(-c2cc(C(C)C)c(O)cc2O)c1-c1ccc(CN2CCOCC2)cc1 [Luminespib] + Cc1cc(Nc2cc(N3CCN(C)CC3)nc(Sc3ccc(NC(=O)C4CC4)cc3)n2)n[nH]1 [Tozasertib] (partner 0.1 µM) yielded a relative viability (NCI-H2405; first compound 0.002 µM) of 0.812, a relative viability (NCI-H2405; first compound 0.006325 µM) of 0.575 and a relative viability (NCI-H2405; first compound 0.02 µM) of 0.808. It also gave a relative viability (NCI-H2405; first compound 0.06325 µM) of 0.34, a relative viability (NCI-H2405; first compound 0.2 µM) of 0.152 and a relative viability (NCI-H1623; first compound 0.002 µM) of 0.398. For the same compound, the relative viability (NCI-H1623; first compound 0.006325 µM) was 0.415, the relative viability (NCI-H1623; first compound 0.02 µM) was 0.386 and the relative viability (NCI-H1623; first compound 0.06325 µM) was 0.306. The relative viability (NCI-H1623; first compound 0.2 µM) was 0.297, the relative viability (NCI-H2009; first compound 0.002 µM) was 0.766 and the relative viability (NCI-H2009; first compound 0.006325 µM) was 0.746. For the same compound, the relative viability (NCI-H2009; first compound 0.02 µM) was 0.798, the relative viability (NCI-H2009; first compound 0.06325 µM) was 0.28 and the relative viability (NCI-H2009; first compound 0.2 µM) was 0.114. The relative viability (NCI-H1648; first compound 0.006325 µM) was 0.373, the relative viability (NCI-H1648; first compound 0.02 µM) was 0.362 and the relative viability (NCI-H1648; first compound 0.06325 µM) was 0.578. It also gave a relative viability (NCI-H1648; first compound 0.2 µM) of 0.262, a relative viability (LOU-NH91; first compound 0.002 µM) of 0.685 and a relative viability (LOU-NH91; first compound 0.006325 µM) of 0.664. The relative viability (LOU-NH91; first compound 0.02 µM) was 0.428, the relative viability (LOU-NH91; first compound 0.06325 µM) was 0.265 and the relative viability (LOU-NH91; first compound 0.2 µM) was 0.282. For the same compound, the relative viability (NCI-H647; first compound 0.002 µM) was 0.299, the relative viability (NCI-H647; first compound 0.006325 µM) was 0.274 and the relative viability (NCI-H647; first compound 0.02 µM) was 0.431. For the same compound, the relative viability (NCI-H647; first compound 0.06325 µM) was 0.0669 and the relative viability (NCI-H647; first compound 0.2 µM) was 0.0766.
